Measured values taken from EP4692071A1, “PHOTOCHROMIC COMPOUND, NAPHTHOL DERIVATIVE, CURABLE COMPOSITION, OPTICAL ARTICLE, LENS, AND EYEGLASS” (TOKUYAMA CORPORATION, priority 2023, dated 2024).
Several values for one entry are separate records, joined by “and”; a condition that tells them apart may be missing. Identical values can stand only once.

Columns and labels:
Format in all cases: physicochemical
[1] = Maximum absorption wavelength (λmax) after color development, spectrophotometer MCPD3000; conditions: for Maximum absorption wavelength: after color development
Procedure: (§1) • [1] Maximum Absorption Wavelength (λmax): The maximum absorption wavelength after color development, measured using a spectrophotometer (instantaneous multichannel photodetector MCPD3000) manufactured by Otsuka Electronics Co., Ltd. was used as an indicator for the color tone during the color development. • [2] 23°C Color Optical Density (A23): A difference between an absorbancy measured after light irradiation at 23°C for 240 seconds {ε(240)} and an absorbancy without light irradiation ε(0) at the maximum absorption wavelength was used as an indicator for the color optical density. […] 35°C Color Optical Density (A35): A difference between an absorbancy measured after light irradiation at 35°C for 240 seconds {ε(240)} and an absorbancy without light irradiation ε(0) at the first and second absorption wavelengths was used as an indicator for the color optical density. […] 23°C color fading half-life [τ1/2 (sec.)]: A time required for the absorbancy of the sample at the maximum absorption wavelength to decrease to 1/2 of {ε(240)-ε(0)} when the light irradiation is terminated after the light irradiation at 23°C for 240 seconds, was used as an indicator for the color fading speed. The shorter this time, the higher the color fading speed. • [6] Residual rate (A90/A0×100): The obtained photochromic plastic lens was subjected to accelerated deterioration using a xenon weather meter X25 manufactured by Suga Test Instruments Co., Ltd. for 90 hours. Subsequently, the color optical density was evaluated before and after the test, then a color optical density before the test (A0) and a color optical density after the test (A90) were measured, and a ratio (A90/A0) was defined as a residual rate. The residual rate was used as an indicator for a color developing durability. The higher the residual rate, the higher the color developing durability.

[2] = 23°C color optical density (A23): absorbancy difference ε(240)-ε(0) after 240 s light irradiation at 23°C; conditions: 240 s irradiation; for 23°C color optical density (-): comparative compounds
Procedure: as §1

[3] = 35°C color optical density (A35): absorbancy difference ε(240)-ε(0) after 240 s light irradiation at 35°C; conditions: 240 s irradiation; for 35°C color optical density (-): comparative compounds
Procedure: as §1

[4] = High-temperature color development rate (A35/A23×100), temperature dependency
Procedure: as §1

[5] = Residual rate (A90/A0×100) after 90 h accelerated deterioration in xenon weather meter X25, color developing durability; conditions: for Residual rate (%): xenon weather meter 90 hours; for Residual rate: after 90 h accelerated deterioration
Procedure: as §1

[6] = photochromic laminate prepared by coating method, absorption band at 449 nm
[7] = photochromic laminate prepared by coating method, absorption band at 569 nm
[8] = photochromic laminate by coating method, absorption band at 449 nm
[9] = photochromic laminate by coating method, absorption band at 569 nm
[10] = photochromic laminate by coating method, 40 µm photochromic layer on thiourethane lens, 0.25 mmol compound per 100 g monomers
[11] = photochromic laminate by coating method, at the maximum absorption wavelength
[12] = photochromic laminate by coating method
[13] = cured product by kneading method, 1 mm
[14] = photochromic cured product, thickness 1 mm (kneading method)
[15] = photochromic laminate prepared by coating method

| Structure (SMILES) | Maximum absorption wavelength ([1]; binder sheet (binder method)) [nm] | Maximum absorption wavelength [1, 14] [nm] | Maximum absorption wavelength [1, 15] | A35/A23 *100 ([4]; binder sheet (binder method)) [%] | A35/A23 *100 [4, 14] [%] | A35/A23 *100 [4, 15] | Residual rate ([5]; binder sheet (binder method)) [%] | Residual rate [5, 14] [%] | Residual rate [5, 15] [%] | also measured |
| --- | --- | --- | --- | --- | --- | --- | --- | --- | --- | --- |
| COc1ccc(C2(c3ccc(OC)cc3)C=Cc3c4c(c5ccc(OC)cc5c3O2)-c2ccccc2C4(C)C)cc1 [Formula (D), reference compound] | – | – | – | – | – | – | – | – | – | Maximum absorption wavelength (nm) ([1]; photochromic laminate by coating method, 40 µm photochromic layer on thiourethane lens, 0.25 mmol compound per 100 g monomers, absorption band at 449 nm): 449 nm; Maximum absorption wavelength (nm) ([1]; photochromic laminate by coating method, 40 µm photochromic layer on thiourethane lens, 0.25 mmol compound per 100 g monomers, absorption band at 569 nm): 569 nm; Maximum absorption wavelength [1, 6]: 449 nm; Maximum absorption wavelength [1, 7]: 569 nm; 23°C color optical density (-) [2, 8]: 0.69 -; 23°C color optical density (-) [2, 9]: 0.87 -; 35°C color optical density (-) [3, 8]: 0.44 -; 35°C color optical density (-) [3, 9]: 0.55 -; Temperature change rate (%) ([4]; photochromic laminate by coating method, comparative compounds, corresponds to A35/A23×100): 63%; A35/A23 *100 [4, 6]: 64%; A35/A23 *100 [4, 7]: 63%; Residual rate (%) [5, 8]: 74%; Residual rate (%) [5, 9]: 73%; Residual rate [5, 6]: 74%; Residual rate [5, 7]: 73% |
| COCCOCCOCCC1(CCOCCOCCOC)c2cc(-c3ccc(OC(C)C)cc3)ccc2-c2c1c1c(c3cc(OC)c(N(C)c4ccc(C(F)(F)F)cc4)cc23)OC(c2ccc(OC)cc2)(c2ccc(OC)cc2)C=C1 [Example 53 Formula (121)] | – | – | – | – | – | – | – | – | – | Maximum absorption wavelength (nm) [1, 10]: 457 nm and 592 nm; A23 (-) [2, 11]: 0.75 - and 0.82 -; A35 (-) [3, 12]: 0.49 - and 0.54 -; A35/A23 *100 (%) [4, 12]: 66%; Residual rate (%) [5, 12]: 76% |
| COc1ccc(C2(c3ccc(OC)cc3)C=Cc3c4c(c5cc(N6CCOc7ccccc76)c(OC)cc5c3O2)-c2ccccc2C4(C)C)cc1 [Example 19 Formula (83)] | – | – | – | – | – | – | – | – | – | Maximum absorption wavelength (nm) ([1]; binder sheet (binder method), urethaneurea resin photochromic layer between polycarbonate sheets, 0.25 mmol per 100 parts by mass resin): 515 nm; Maximum absorption wavelength (nm) ([1]; photochromic cured product by kneading method, 1 mm thick thiourethane, 0.106 mmol per 100 g monomers): 519 nm; Maximum absorption wavelength (nm) [1, 10]: 515 nm; A23 (-) ([2]; binder sheet (binder method)): 1.36 -; A23 (-) [2, 13]: 1.37 -; A23 (-) [2, 11]: 1.34 -; A35 (-) ([3]; binder sheet (binder method)): 0.91 -; A35 (-) [3, 13]: 0.91 -; A35 (-) [3, 12]: 0.90 -; A35/A23 *100 (%) ([4]; binder sheet (binder method)): 67%; A35/A23 *100 (%) [4, 13]: 67%; A35/A23 *100 (%) [4, 12]: 67%; Residual rate (%) ([5]; binder sheet (binder method)): 91%; Residual rate (%) [5, 13]: 83%; Residual rate (%) [5, 12]: 77% |
| COc1ccc(C2(c3ccc(OC)cc3)C=Cc3c4c(c5cc(N6CCc7cc(C)ccc76)c(OC)cc5c3O2)-c2ccccc2C4(C)C)cc1 [Formula (52A)] | 535 | 539 | 535 nm | 75 | 76 | 75% | 92 | 82 | 76 | – |
| COc1ccc(C2(c3ccc(N(c4ccccc4)c4ccccc4)cc3)C=Cc3c4c(c5cc(N6CCc7ccccc76)c(OC)cc5c3O2)-c2ccccc2C42CCC3(CCCCC3)CC2)cc1 (centres unmarked) [Formula (57A)] | 548 | – | 548 nm | 70 | – | 70% | 80 | – | 65 | – |
| CCC1(CC)c2cc(C)ccc2-c2c1c1c(c3cc(C)c(N4CCc5ccccc54)cc23)OC(c2ccc(C)cc2)(c2ccc(OC)cc2)C=C1 (centres unmarked) [Formula (42A)] | 535 | 539 | 535 nm | 75 | 76 | 75% | 85 | 75 | 70 | – |
| CCCCCCOc1ccc(C2(c3ccc(OCCCCCC)cc3)C=Cc3c4c(c5cc(N6CCc7cc(OC)ccc76)c(OC)cc5c3O2)-c2ccc(-c3ccc(C(F)(F)F)cc3)cc2C42CC(C)(C)CC(C)(C)C2)cc1 [Formula (48A)] | 539 | – | 539 nm | 62 | – | 62% | 84 | – | 69 | – |
| CCC1(CC)CCC2(CC1)c1cc(-c3ccccc3)ccc1-c1c2c2c(c3cc(OC)c(N4CCc5ccccc54)cc13)OC(c1ccc(C)cc1)(c1ccc(N(C)c3ccccc3)cc1)C=C2 (centres unmarked) [Formula (60A)] | – | – | 535 nm and 595 nm | – | – | 71% | – | – | 69 | – |
| COc1ccc(C2(c3ccc(OC)cc3)C=Cc3c4c(c5cc(N6CCc7ccccc76)c(OC)cc5c3O2)-c2ccccc2C4(C)C)cc1 [Formula (28A)] | 532 | 536 | 532 nm | 74 | 75 | 74% | 88 | 79 | 74 | – |
| CCCOc1ccc(C2(c3ccc(OCCC)cc3)C=Cc3c4c(c5cc(N6CCc7cc(C(F)(F)F)ccc76)c(OC)cc5c3O2)-c2ccccc2C4(CCC)CCC)cc1 [Formula (54A)] | – | – | 592 nm and 486 nm | – | – | 66% and 67% | – | – | 69 | – |
| COc1ccc(C2(c3ccc(OC)c(OC)c3)C=Cc3c4c(c5cc(N6CCc7ccccc76)c(OC)cc5c3O2)-c2ccccc2C4(CCC(F)(F)F)CCC(F)(F)F)cc1 (centres unmarked) [Formula (67A)] | 527 | 531 | 527 nm | 66 | 67 | 66% | 83 | 75 | 73 | – |
| CCCOc1ccc(C2(c3ccc(OC)cc3)C=Cc3c4c(c5cc(N6CCc7ccccc76)c(C)cc5c3O2)-c2ccc(-c3ccc(F)c(F)c3F)cc2C4(CCCCOC)CCCCOC)cc1F (centres unmarked) [Formula (78A)] | 523 | – | 524 nm | 68 | – | 68% | 82 | – | 64 | – |
